Molecular target: T1, Glucose-6-phosphate 1-dehydrogenase (Leuconostoc mesenteroides, UniProt P11411)
T1 sequence (P11411 whole entry): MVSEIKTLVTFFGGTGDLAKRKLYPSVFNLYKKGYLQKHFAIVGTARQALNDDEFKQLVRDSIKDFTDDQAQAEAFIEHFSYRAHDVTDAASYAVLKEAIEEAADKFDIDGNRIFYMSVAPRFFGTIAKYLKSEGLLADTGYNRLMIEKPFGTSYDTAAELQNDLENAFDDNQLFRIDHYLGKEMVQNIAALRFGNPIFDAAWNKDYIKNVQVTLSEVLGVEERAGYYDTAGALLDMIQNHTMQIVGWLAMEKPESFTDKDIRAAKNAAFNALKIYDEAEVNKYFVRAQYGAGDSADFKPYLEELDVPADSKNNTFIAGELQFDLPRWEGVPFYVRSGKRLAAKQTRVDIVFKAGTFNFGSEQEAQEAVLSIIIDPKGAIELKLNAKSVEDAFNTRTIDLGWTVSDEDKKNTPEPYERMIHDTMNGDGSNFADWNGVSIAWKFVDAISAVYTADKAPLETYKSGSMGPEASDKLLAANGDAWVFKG
Assay: Leuconostoc G6PDH inhibition potency, SAR follow-up, counter-screen for TbHK1 inhibitor project, biochemical, analogue series, IC50 (AID 2579)

Compound | IC50 [µM]
O=C(O)c1ccccc1NC(=O)c1ccccc1C(=O)O | > 25
O=c1c2cc(F)ccc2sn1-c1ccccc1Cl | > 25
N#Cc1ccc2c(=O)n(-c3ccccc3)sc2c1 [3-oxidanylidene-2-phenyl-1,2-benzothiazole-6-carbonitrile] | > 25
O=c1c2ccccc2sn1-c1cccc(F)c1 [KUC103653N] | > 25
COc1cccc(-n2sc3ccccc3c2=O)c1 [2-(3-methoxyphenyl)-1,2-benzothiazol-3-one] | > 25
COc1ccc(C(=O)Nc2cc(C(=O)O)ccc2Cl)cc1 [4-chloro-3-[(4-methoxybenzoyl)amino]benzoic acid] | > 25
O=C(O)c1ccc(Cl)cc1NC(=O)C1CCOCC1 [KUC106462N] | > 25
COC(=O)c1cc(Cl)ccc1NC(=O)c1ccc(OC)cc1 [methyl 5-chloranyl-2-[(4-methoxyphenyl)carbonylamino]benzoate] | > 25
O=C(Nc1cc(Cl)ccc1C(=O)O)c1ccc2c(c1)OCO2 [KUC106004N] | > 25
O=C(Cn1sc2ccccc2c1=O)Nc1ccccc1Cl [N-(2-chlorophenyl)-2-(3-oxidanylidene-1,2-benzothiazol-2-yl)ethanamide] | > 25
COc1ccc(C(=O)Nc2ccccc2-c2nn[nH]n2)cc1 [4-methoxy-N-[2-(2H-1,2,3,4-tetrazol-5-yl)phenyl]benzamide] | > 25
O=C(Cn1sc2ccccc2c1=O)N1CCCCC1 | > 25
Cc1ccc(NC(=O)Cn2sc3ccccc3c2=O)cc1 [KUC104219N] | > 25
CCc1ccc(C(=O)Nc2cc(Cl)ccc2C(=O)O)cc1 [KSC-6-279] | > 25
O=C(Cn1sc2ccccc2c1=O)Nc1ccc(I)cc1 [N-(4-iodophenyl)-2-(3-oxo-1,2-benzothiazol-2-yl)acetamide] | > 25
O=C(Nc1cc(Cl)ccc1C(=O)O)c1ccoc1 [4-chloranyl-2-(furan-3-ylcarbonylamino)benzoic acid] | > 25
O=c1c2ccccc2sn1-c1ccc(Cl)cc1 [2-(4-chlorophenyl)-1,2-benzothiazol-3-one] | > 25
O=C(CCn1sc2ccccc2c1=O)Nc1ccccc1 [3-(3-oxidanylidene-1,2-benzothiazol-2-yl)-N-phenyl-propanamide] | > 25
O=C(c1ccccc1)n1sc2ccccc2c1=O [KUC105344N] | > 25
O=C(Nc1cc(Cl)ccc1C(=O)O)c1ccccc1 [2-benzamido-4-chlorobenzoic acid] | > 25

Compound | IC50 [µM]
O=C(Cn1sc2ccccc2c1=O)NCc1ccccc1 | > 25
Cc1cccc(C(=O)Nc2cc(Cl)ccc2C(=O)O)c1 [4-chloro-2-[[(3-methylphenyl)-oxomethyl]amino]benzoic acid] | > 25
CC(=O)Nc1cc(Cl)ccc1C(=O)O [KUC105931N] | > 25
O=C(Nc1cc(Cl)ccc1C(=O)O)c1ccc(OC(F)(F)F)cc1 [KUC105992N] | > 25
COC(=O)c1ccc(Cl)cc1NS(=O)(=O)c1ccc(OC)cc1 | > 25
COc1ccc(C(=O)Nc2cc(F)ccc2C(=O)O)cc1 [KSC-6-276] | > 25
COc1ccc(C(=O)Nc2cc(Cl)ccc2C(=O)O)cc1OC [4-chloro-2-[(3,4-dimethoxybenzoyl)amino]benzoic acid] | > 25
O=C(NCc1ccccc1)n1sc2ccccc2c1=O [N-benzyl-3-oxo-1,2-benzothiazole-2-carboxamide] | > 25
CCCCCCC(=O)Nc1cc(Cl)ccc1C(=O)O [4-chloro-2-(1-oxoheptylamino)benzoic acid] | > 25
COc1ccc2c(c1)CN(c1cc(Cl)ccc1C(=O)O)C2=O [4-chloro-2-(6-methoxy-3-oxo-1H-isoindol-2-yl)benzoic acid] | > 25
N#Cc1ccccc1NC(=O)Cn1sc2ccccc2c1=O | > 25
O=c1c2cc(N3CCOCC3)ccc2sn1-c1ccccc1 | > 25
O=c1c2ccc(F)cc2sn1Cc1ccccc1 [6-fluoro-2-(phenylmethyl)-1,2-benzothiazol-3-one] | > 25
O=c1c2ccc([N+](=O)[O-])cc2sn1-c1ccccc1 [6-nitro-2-phenyl-1,2-benzothiazol-3-one] | > 25
O=C(Nc1cc(Cl)ccc1C(=O)O)c1ccncc1 [4-chloro-2-[[oxo(pyridin-4-yl)methyl]amino]benzoic acid] | > 25
COC(=O)c1ccc(Cl)cc1NC(=O)c1ccccc1OC [4-chloro-2-[[(2-methoxyphenyl)-oxomethyl]amino]benzoic acid methyl ester] | > 25
O=c1c2ccccc2sn1-c1cccc(Cl)c1 [2-(3-chlorophenyl)-1,2-benzothiazol-3-one] | > 25
O=C(Cn1sc2ccccc2c1=O)Nc1ccc(Br)cc1 [N-(4-bromophenyl)-2-(3-oxo-1,2-benzothiazol-2-yl)acetamide] | > 25
CCc1ccc(C(=O)Nc2cc(Br)ccc2C(=O)O)cc1 [4-bromanyl-2-[(4-ethylphenyl)carbonylamino]benzoic acid] | > 25
COc1ccc(C(=O)NCC(=O)O)cc1 | > 25

Compound | IC50 [µM]
COc1ccc(NC(=O)c2ccccc2C(=O)O)cc1 [KSC-6-244] | > 25
COc1ccc(C(=O)N(C)c2cc(Cl)ccc2C(=O)O)cc1 | > 25
CCCc1ccc(C(=O)Nc2cc(Cl)ccc2C(=O)O)cc1 | > 25
Cc1ccccc1NC(=O)Cn1sc2ccccc2c1=O | > 25
CCOc1ccc(C(=O)Nc2cc(Cl)ccc2C(=O)O)cc1 [4-chloro-2-[[(4-ethoxyphenyl)-oxomethyl]amino]benzoic acid] | > 25
CCCCCC(=O)Nc1cc(Cl)ccc1C(=O)O [4-chloro-2-(1-oxohexylamino)benzoic acid] | > 25
COc1ccc(C(=O)Nc2cc(-c3ccccc3)ccc2C(=O)O)cc1 | > 25
COc1ccc(S(=O)(=O)Nc2cc(Cl)ccc2C(=O)O)cc1 | > 25
O=C(Cn1sc2ccccc2c1=O)NC1CCCCC1 | > 25
O=C(O)c1ccc(Cl)cc1NC(=O)c1coc2ccccc12 [2-[[3-benzofuranyl(oxo)methyl]amino]-4-chlorobenzoic acid] | > 25
COc1ccc(C(=O)Nc2cc(Cl)ccc2S(N)(=O)=O)cc1 | > 25
COc1ccc(C(=O)Nc2cc(C)ccc2C(=O)O)cc1 [2-[(4-methoxyphenyl)carbonylamino]-4-methyl-benzoic acid] | > 25
O=C(Cn1sc2ccccc2c1=O)Nc1ccc(F)cc1 [N-(4-fluorophenyl)-2-(3-oxo-1,2-benzothiazol-2-yl)acetamide] | > 25
COc1cc(C(=O)Nc2cc(Cl)ccc2C(=O)O)cc(OC)c1OC | > 25
O=c1c2cc(F)ccc2sn1-c1ccc(Cl)cc1 [2-(4-chlorophenyl)-5-fluoranyl-1,2-benzothiazol-3-one] | > 25
CC(=O)Nc1ccc2c(=O)n(-c3ccccc3)sc2c1 [KUC104218N] | > 25
N#Cc1ccc2sn(-c3ccccc3)c(=O)c2c1 [KUC104224N] | > 25
COc1ccc(C(=O)Nc2ccccc2C(=O)O)cc1Cl | > 25
COc1ccc(C(=O)Nc2cc(I)ccc2C(=O)O)cc1 [4-iodanyl-2-[(4-methoxyphenyl)carbonylamino]benzoic acid] | > 25
COc1ccc(C(=O)NC(CC(=O)O)c2ccc(Cl)cc2)cc1 (stereo not given) [3-(4-chlorophenyl)-3-[(4-methoxyphenyl)carbonylamino]propanoic acid] | > 25

Reference: BindingDB's records for doi:10.7270/Q2C53J9J (University of Pittsburgh, 2010)
